# Test results reported in ChEMBL document CHEMBL1201862, “PubChem BioAssay data set” (2004).
#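 Method: 48-hour compound exposure of cells in 96-well plates, five concentrations, linear interpolation of endpoints. GI50 marks 50% less growth.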 Active and inactive are the calls of the source. Cut-off read from the data, not from the text of the source: active = GI50 up to about 1.1 µM and inactive = higher.
# How the values were obtained:
# Assay in all cases: NCI anticancer screen, dose series, 48 h
# T47D = tested on: T47D
# MDA-MB-435 = tested on: MDA-MB-435
# BT-549 = tested on: BT-549
# HL-60 = tested on: HL-60
# CCRF-CEM = tested on: CCRF-CEM
# COLO 205 = tested on: COLO 205
# Hs-578T = tested on: Hs-578T
# SK-MEL-28 = tested on: SK-MEL-28
# HT-29 = tested on: HT-29
# MDA-MB-231 = tested on: MDA-MB-231
# DU-145 = tested on: DU-145
# NCI-H460 = tested on: NCI-H460
# CAKI-1 = tested on: CAKI-1
# RXF 393 = tested on: RXF 393
# NCI-H522 = tested on: NCI-H522
# NCI-H23 = tested on: NCI-H23
# HCT-116 = tested on: HCT-116
# RPMI-8226 = tested on: RPMI-8226
# HCT-15 = tested on: HCT-15
# SNB-19 = tested on: SNB-19
# UACC-257 = tested on: UACC-257
# LOX IMVI = tested on: LOX IMVI
# A549 = tested on: A549
# OVCAR-3 = tested on: OVCAR-3
# OVCAR-4 = tested on: OVCAR-4
# PC-3 = tested on: PC-3
# NCI-H226 = tested on: NCI-H226
# OVCAR-5 = tested on: OVCAR-5
# SF-268 = tested on: SF-268
# MDA-N = tested on: MDA-N
# 786-0 = tested on: 786-0
# SK-OV-3 = tested on: SK-OV-3
# OVCAR-8 = tested on: OVCAR-8
# M14 = tested on: M14
# SNB-75 = tested on: SNB-75
# SK-MEL-2 = tested on: SK-MEL-2
# KM12 = tested on: KM12
# SF-539 = tested on: SF-539
# UO-31 = tested on: UO-31
# Malme-3M = tested on: Malme-3M
# IGROV-1 = tested on: IGROV-1
# MOLT-4 = tested on: MOLT-4
# HOP-62 = tested on: HOP-62
# NCI/ADR-RES = tested on: NCI/ADR-RES
# SK-MEL-5 = tested on: SK-MEL-5
# TK-10 = tested on: TK-10
# SW-620 = tested on: SW-620
# U-251 = tested on: U-251
# SR = tested on: SR
# SN12C = tested on: SN12C
# HCC 2998 = tested on: HCC 2998
# MCF7 = tested on: MCF7
# EKVX = tested on: EKVX
# K562 = tested on: K562
# UACC-62 = tested on: UACC-62
# SF-295 = tested on: SF-295
# ACHN = tested on: ACHN
# HOP-92 = tested on: HOP-92
# A498 = tested on: A498
structure (smiles),measurement,setting,value
Cc1cc(=O)oc2c(C)c3oc(CBr)c(Br)c3cc12,GI50,T47D,24.2 µM (inactive)
same,GI50,MDA-MB-435,43.3 µM (inactive)
same,GI50,BT-549,29.3 µM (inactive)
same,GI50,HL-60,85.1 µM (inactive)
same,GI50,CCRF-CEM,10.4 µM (inactive)
same,GI50,COLO 205,28.2 µM (inactive)
same,GI50,Hs-578T,44.1 µM (inactive)
same,GI50,SK-MEL-28,44.4 µM (inactive)
same,GI50,HT-29,39.2 µM (inactive)
same,GI50,MDA-MB-231,87.3 µM (inactive)
same,GI50,DU-145,42.9 µM (inactive)
same,GI50,NCI-H460,18.9 µM (inactive)
same,GI50,CAKI-1,17.2 µM (inactive)
same,GI50,RXF 393,19.8 µM (inactive)
same,GI50,NCI-H522,14.7 µM (inactive)
same,GI50,NCI-H23,39 µM (inactive)
same,GI50,HCT-116,26.9 µM (inactive)
same,GI50,RPMI-8226,16.3 µM (inactive)
same,GI50,HCT-15,30.1 µM
same,GI50,SNB-19,31.6 µM (inactive)
same,GI50,UACC-257,54.5 µM (inactive)
same,GI50,LOX IMVI,12.6 µM (inactive)
same,GI50,A549,17.4 µM (inactive)
same,GI50,OVCAR-3,> 100 µM (inactive)
same,GI50,OVCAR-4,28.5 µM (inactive)
same,GI50,PC-3,40.4 µM (inactive)
same,GI50,NCI-H226,30 µM (inactive)
same,GI50,OVCAR-5,27.4 µM (inactive)
same,GI50,SF-268,25.6 µM (inactive)
same,GI50,MDA-N,30.4 µM (inactive)
same,GI50,786-0,14.4 µM (inactive)
same,GI50,SK-OV-3,43.3 µM (inactive)
same,GI50,OVCAR-8,24.7 µM (inactive)
same,GI50,M14,22 µM (inactive)
same,GI50,SNB-75,22.5 µM (inactive)
same,GI50,SK-MEL-2,36.1 µM (inactive)
same,GI50,KM12,26.8 µM (inactive)
same,GI50,SF-539,37.6 µM (inactive)
same,GI50,UO-31,18.6 µM (inactive)
same,GI50,Malme-3M,> 10 µM (inactive)
same,GI50,IGROV-1,17.7 µM (inactive)
same,GI50,MOLT-4,8.59 µM (inactive)
same,GI50,HOP-62,27 µM (inactive)
same,GI50,NCI/ADR-RES,33.7 µM (inactive)
same,GI50,SK-MEL-5,18.2 µM (inactive)
same,GI50,TK-10,56.4 µM (inactive)
same,GI50,SW-620,16.9 µM (inactive)
same,GI50,U-251,31.1 µM (inactive)
same,GI50,SR,27.7 µM (inactive)
same,GI50,SN12C,20.1 µM (inactive)
same,GI50,HCC 2998,19.3 µM (inactive)
same,GI50,MCF7,33.1 µM (inactive)
same,GI50,EKVX,92.3 µM (inactive)
same,GI50,K562,19.6 µM (inactive)
same,GI50,UACC-62,17.5 µM (inactive)
same,GI50,SF-295,17.2 µM (inactive)
same,GI50,ACHN,35.6 µM (inactive)
O=C(O)c1ccccc1/C=N/N=C1c2ccccc2-c2ccccc21,GI50,T47D,30.7 µM (inactive)
same,GI50,MDA-MB-435,29.9 µM (inactive)
same,GI50,BT-549,71.9 µM (inactive)
same,GI50,HL-60,28.8 µM (inactive)
same,GI50,CCRF-CEM,25.5 µM (inactive)
same,GI50,COLO 205,32.1 µM (inactive)
same,GI50,Hs-578T,3.94 µM (inactive)
same,GI50,HOP-92,35.3 µM (inactive)
same,GI50,SK-MEL-28,51.2 µM (inactive)
same,GI50,HT-29,29 µM (inactive)
same,GI50,MDA-MB-231,59 µM (inactive)
same,GI50,DU-145,42.7 µM (inactive)
same,GI50,NCI-H460,26.7 µM (inactive)
same,GI50,CAKI-1,35.3 µM (inactive)
same,GI50,RXF 393,29 µM (inactive)
same,GI50,NCI-H522,28.6 µM (inactive)
same,GI50,NCI-H23,38.5 µM (inactive)
same,GI50,HCT-116,31 µM (inactive)
same,GI50,RPMI-8226,20.2 µM (inactive)
same,GI50,HCT-15,44.8 µM
same,GI50,SNB-19,39.9 µM (inactive)
same,GI50,UACC-257,85.1 µM (inactive)
same,GI50,LOX IMVI,37.7 µM (inactive)
same,GI50,A549,31.6 µM (inactive)
same,GI50,OVCAR-3,15.6 µM (inactive)
same,GI50,OVCAR-4,35.2 µM (inactive)
same,GI50,PC-3,30.3 µM (inactive)
same,GI50,A498,68.4 µM (inactive)
same,GI50,NCI-H226,20.8 µM (inactive)
same,GI50,OVCAR-5,50.2 µM (inactive)
same,GI50,SF-268,21.3 µM (inactive)
same,GI50,MDA-N,37.5 µM (inactive)
same,GI50,786-0,29.6 µM (inactive)
same,GI50,SK-OV-3,44.9 µM (inactive)
same,GI50,OVCAR-8,44.9 µM (inactive)
same,GI50,M14,42.2 µM (inactive)
same,GI50,SK-MEL-2,44.1 µM (inactive)
same,GI50,KM12,22.2 µM (inactive)
same,GI50,SF-539,27.9 µM (inactive)
same,GI50,UO-31,32.7 µM (inactive)
same,GI50,Malme-3M,23.3 µM (inactive)
same,GI50,IGROV-1,43.3 µM (inactive)
same,GI50,MOLT-4,22.5 µM (inactive)
same,GI50,HOP-62,42.6 µM (inactive)
same,GI50,NCI/ADR-RES,52.8 µM (inactive)
same,GI50,SK-MEL-5,33.3 µM (inactive)
same,GI50,TK-10,74.8 µM (inactive)
same,GI50,SW-620,32.4 µM (inactive)
same,GI50,U-251,22 µM (inactive)
same,GI50,SR,27.3 µM (inactive)
same,GI50,SN12C,28.2 µM (inactive)
same,GI50,MCF7,31.2 µM (inactive)
same,GI50,EKVX,29 µM (inactive)
same,GI50,K562,32.1 µM (inactive)
same,GI50,UACC-62,44.9 µM (inactive)
same,GI50,SF-295,29.3 µM (inactive)
same,GI50,ACHN,45.1 µM (inactive)
